The test system of one series is PTZ-induced seizures. Nature of the series: Subcutaneous PTZ seizure threshold test. Format: in vivo, mouse. The note with it: mice, 100 mg/kg i.p. pretreatment, PTZ 85 mg/kg s.c. On the procedure: Mouse studies were performed by NIH Anticonvulsant Screening Program at the National Institute of Neurological Disorders and Stroke (Stables and Kupferberg, 1997) according to the established NIH experimental procedures outlined below. Compounds were delivered into mice by i.p. injection at a dose of 100 mg/kg in sterile 5% DMSO, 95% Neobee (Josey et al., 2013). One of four methods for seizure induction was subsequently administered to mice at 0.25, 0.5, 1, 2 and 4 h after treatment with compound. (1) Subcutaneous PTZ seizure threshold test. PTZ was administered at a concentration of 85 mg/kg, into the loose fold of skin in the midline of the neck. […] (2) Maximal electroshock test. 60 Hz of 50 mA alternating current was delivered for 0.2 s by corneal electrodes. Mice were considered protected from seizures when the hindlimb tonic extensor was absent (White et al., 1995). (3) Minimal clonic seizure (6 Hz) test. 6 Hz of 32 mA or 44 mA alternating current was delivered for 3 s by corneal electrodes to elicit a psychomotor seizure. Mice were considered protected from seizures when the automatistic behaviors were absent (Barton et al., 2001). (4) Corneal kindled mouse model. Mice were kindled electrically with a 3 s stimulation, 8 mA, 60 Hz, and corneal electrodes to a criterion of 10 consecutive Stage 5 seizures (facial clonus and head nodding progressing to forelimb clonus, and finally rearing and falling accompanied by a generalized clonic seizure as described by Racine, 1972). Animals generally reach Stage 5 after twice daily stimulation for 8 days. With continued stimulation once a day, animals usually progressed to a reproducible Stage 5 after 10-14 additional days. At least 72 hours after the mice were kindled, the test substance was administered i.p. and each animal was given the electrical stimulus indicated above. […] Treated animals not displaying a Stage 4 or 5 seizure were considered protected.

The next series deals with HT22 cells. Nature of the series: In vitro neurotoxicity without glutamate (MTS cell viability). It is filed as cell-based, mouse. To be noted: for Safety Index TC50/PC50: HT22 cells. On the procedure:
The HT22 neuronal cell line is a subclone of HT4, derived from the mouse hippocampus (Morimoto and Koshland, 1990). […] HT22 cells were used. The cells were grown in Dulbecco's Modified Eagle's medium (DMEM/high glucose) supplemented with 10% fetal bovine serum (Hyclone) and 5 mL Antibiotic-Antimycotic (Amphotericin B, Penicillin, and Streptomycin; Invitrogen) at 37° C. in 5% CO2.
Cell viability was assessed by the ability of the viable cells to metabolize 3-(4,5-dimethylthiazol-2-yl)-5-(3-carboxymethoxyphenyl)-2(4-sulfophenyl)2-H-tetrazolium, inner salt (MTS), as described previously (Cory et al., 1991). The metabolism of tetrazolium salts is often used to measure cellular proliferation, but in the system used here, it has been previously shown to correlate well with cell viability as determined by trypan blue exclusion and colony-forming assays (Davis and Maher, 1994). Briefly, HT-22 cells were seeded onto 96-well plates at 5.0×10^3 cells per well in 75 μL of medium and maintained at 37° C. in 5% CO2 overnight prior to the initiation of experimental treatments. For glutamate toxicity testing, cells were subsequently treated with 25 μL of medium containing glutamate (monosodium glutamate, Sigma, 1 M stock concentration in media, to achieve a final concentration of 10 mM) plus inhibitors (stock in DMSO) and maintained at 37° C. in 5% CO2. For t-BuOOH toxicity testing, cells were subsequently treated with 25 μL of medium containing t-BuOOH (Sigma, 10 mM stock concentration, to achieve a final concentration of 50 μM) plus inhibitors (stock in DMSO) and maintained at 37° C. in 5% CO2 for 3 hours, after which the media was removed, cells washed gently with HBSS, the media replaced with standard culture media, and the cells returned to incubation at 37° C. in 5% CO2. For both glutamate and t-BuOOH treatments, 10 μl of MTS solution was added to each well 24 hrs after initial treatment, and the cells were maintained in growth medium for 2 h at 37° C. Absorbance at 490 nm was subsequently measured by a SpectraMax 190 plate reader (Molecular Devices). The growth medium without cells in the presence of MTS solution was used as solution background and untreated cells were considered the controls. Cell viability was calculated as a percentage compared with untreated controls. EC50 determinations were based on 12-point titrations using GraphPad Prism, and each experiment was repeated at least four times. Morphology of HT22 cells following treatments was determined by phase-contrast microscopy. Digital images of cells grown on cell culture plates were captured at 10× magnification.

Another series deals with zebrafish larvae. Nature of the series: Zebrafish larval toxicity (NOEC, lethal dose). It is filed as in vivo. To be noted: for Lethal dose / Highest concentration tested for anti-seizure activity: 7 dpf zebrafish larvae; for Lethal dose: up to 5 h treatment; for Highest concentration tested for anti-seizure activity: highest sub-lethal dose.
The mark [1] stands for this setting: HT22 cells without glutamate, 24 hrs, MTS, concentration producing 50% toxicity, read-out: Toxicity TC50.

Like-named read-outs stand apart in the source and are kept apart here. Bounds are passed on as bounds.

Consider `C#CCNC1=CC(=O)c2ccccc2C1=O` [Compound 2h, 2-(prop-2-yn-1-ylamino)naphthalene-1,4-dione], for which, in the series with PTZ-induced seizures, the “effect on PTZ-induced seizures” value is “had no effect on PTZ-induced seizures in mice”. For the same compound, the “Safety Index TC50/PC50” value in the series on HT22 cells amounted to 442. In the series with HT22 cells (setting [1]), the CC50 was 53 µM. In the series with zebrafish larvae, the Lethal dose is reported as greater than 0.02 mM and the “Highest concentration tested for anti-seizure activity” value (shortened to “Highest concentration tested”) is 0.02 mM.

With `O=C1C=C(NCc2ccccc2)C(=O)c2ccccc21` [Compound 2j, 2-(benzylamino)naphthalene-1,4-dione], the “effect on PTZ-induced seizures” value with PTZ-induced seizures is listed as “had no effect on PTZ-induced seizures in mice”. The “Safety Index TC50/PC50” value in the series with HT22 cells is on record as 1,136. In the series with HT22 cells (setting [1]), the CC50 was greater than 100 µM. Further, in the series with zebrafish larvae, the Lethal dose turned out to be 0.012 mM and the “Highest concentration tested” value was found to be 0.010 mM.

With `O=C1C=C(NCc2cccc(Cl)c2)C(=O)c2ccccc21` [Compound 2q, 2-((3-chlorobenzyl)amino)naphthalene-1,4-dione], the “effect on PTZ-induced seizures” value with PTZ-induced seizures is listed as “had no effect on PTZ-induced seizures in mice”. For the same compound, the “Safety Index TC50/PC50” value with HT22 cells is given as 3,226. Besides, the CC50 in the series on HT22 cells (setting [1]) was greater than 100 µM. For the same compound, in the series with zebrafish larvae, the Lethal dose was greater than 0.02 mM and the “Highest concentration tested” value is given as 0.02 mM.

As to `CC1=CC(=O)c2ccccc2C1=O` [VK3, menadione, reference compound], the “Safety Index TC50/PC50” value with HT22 cells amounted to 24. Moreover, in the series with HT22 cells (setting [1]), the CC50 is 19 µM. In addition, in the series on zebrafish larvae, the Lethal dose stood at 0.007 mM and the “Highest concentration tested” value stood at 0.006 mM. Further, in the series on zebrafish larvae (zebrafish larvae), the “highest NOEC” value stood at 10 µM.

Consider menaquinones [VK2, reference compound], for which, in the series on HT22 cells, the CC50 is greater than 100 µM, the cellular toxicity entry was “neither exhibited any signs of cellular toxicity” and the “Safety Index TC50/PC50” value is reported as 231.

(Values after patent publication US10391070B2, “Compositions and methods for treating neurological diseases or injury” (MUSC FOUNDATION FOR RESEARCH DEVELOPMENT, priority 2012, dated 2019).)
